Assays:
[1] = tested on: cleaved-PARP in DU145 cells; assay: Flow cytometry of cleaved-PARP, DU145; type: cell-based, human; settings: DU145, 10 μM Pt(IV)-4C or 2.5 μM Pt(IV)-5C for 2 hours, analyzed seven hours post treatment
Protocol: FIG. 12 is a series of histograms indicating Pt(IV)-4C and Pt(IV)-5C-induced cleavage of PARP in A549 cells (top panels) and in DU145 cells (bottom). A549 cells were treated for 5 hours with control (left), 25 μM Pt(IV)-4C (center), or 7.5 μM Pt(IV)-5C (right), and analyzed 12 hours post treatment. DU145 cells were treated for 2 hours with control (left), 10 μM Pt(IV)-4C (center), or 2.5 μM Pt(IV)-5C (right), and analyzed seven hours post treatment. Data are representative of three independent experiments.
Cells (200,000 to 250,000) were seeded in 60 mm dishes and incubated at 37° C. in a humidified, 5% CO2 atmosphere for 2 days to reach ˜50-60% confluence. The cells were treated with the platinum complexes as indicated, the floating cells were collected, and both attached and floating cells were washed 2× with PBS. The cells were resuspended in fresh medium and incubated as indicated. After incubation, both the floating and attached cells were collected and fixed by incubation in 4% formaldehyde for 10 minutes at room temperature. The fixed cells were pelleted and permeabilized by incubation in 500 μL of ice-cold methanol at 4° C. for 10 minutes. The samples were stored at −20° C. until analysis. For analysis, the cells were pelleted and washed 2× with 1% BSA in PBS. […] After washing 2× with 1% BSA, the cells were resuspended in PBS and analyzed on a Becton Dickinson FACS Calibur. […]

DU145 cells = assay: Hoechst/PI staining, confocal microscopy, DU145; type: cell-based, human
Protocol: Cells (100,000 to 125,000) were seeded into 35 mm dishes and incubated for 48 hours at 37° C. The cells were treated with control, Pt(IV)-4C, or Pt(IV)-5C, and while in the dark, the cells were washed 2× with 1 mL PBS. After washing, 1 mL of a 2 μg/mL Hoechst 33342 and 10 μg/mL PI solution (in PBS) was added, and the cells were incubated for 15 minutes at room temperature. Images were acquired within 5 minutes with a Nikon A1R confocal laser scanning microscopy system (CLSM) mounted on a Nikon Eclipse Ti. At least three random areas on each dish were imaged.
Analysis of Hoechst (Ho) and PI staining by confocal microscopy also was performed to detect cell death. PI stains cells with membrane damage, whereas Ho stains both live and apoptotic cells (although apoptotic cells have more intense Ho fluorescence). […] Additionally, unlike A549, the PI positive cells in Pt(IV)-4C treated cells were higher than Pt(IV)-5C treated cells.

[2] = Solubility in water and culture medium; type: physicochemical; settings: stock DMSO solution diluted in the culture medium
Protocol: It should be noted that while the solubility of the Pt(IV) complexes in organic solvents were increased compared to their Pt(II) precursors, they were still poorly soluble in water. Thus, Pt(IV)-1C to Pt(IV)-3C were limited to a highest concentration of 100 μM. […] Testing of Pt(IV)4C therefore was limited to 25 μM.

CC(=O)[O][Pt]([Cl])([Cl])[O]C(C)=O.CCCCCOc1ccnc(-c2cc(OCCCCC)ccn2)c1 [Pt(IV)-5C, [Pt(IV)Cl2(OAc)2(4,4′-dipentoxy-2,2′-bipyridine)]]
fold increase of cleaved-PARP [1]: ~2 fold
Hoechst and PI staining compared to control (DU145 cells): more PI positive staining than Ho staining

[Pt(IV)Cl2(OAc)2(4,4′-dibutoxy-2,2′-bipyridine)] [Pt(IV)-4C]
fold increase of cleaved-PARP [1]: ~2 fold
concentration at which the complex precipitated out of solution [2]: ≥ 30 µM

Source: patent US10316050B2, “PT (IV) complexes containing 4,4′-disubstituted-2,2′-bipyridyl and their use in cancer therapy” (THE BOARD OF REGENTS OF THE NEVADA SYSTEM OF HIGHER …, priority 2014, dated 2019)
